# Data taken from patent US9790216B2, “3-substituted cyclopentylamine derivatives” (Merck Patent GmbH, priority 2013, dated 2017).
# Molecular target: T1, human fatty acid synthase FASN (Homo sapiens, UniProt P49327)
# T1 construct: human recombinant full-length fatty acid synthase; made in house; host or cells: SF9 cells
# Test: Biochemical activity testing of human fatty acid synthase FASN (NADPH fluorescence intensity enzyme assay)
# Settings: human recombinant full-length FASN, inhibition
# Description: • GST=Glutathione-S-transferase • FRET=Fluorescence resonance energy transfer • HTRF®=(homogenous time resolved fluorescence) • HEPES=4-(2-hydroxyethyl)-1-piperazine ethanesulfonic acid buffer • DTT=Dithiothreitol • BSA=bovine serum albumin • CHAPS=detergent; • CHAPS=3-[(3-cholamidopropyl)dimethylammonio]-1-propanesulfonate Biochemical Activity Testing of Human Fatty Acid Synthase FASN
# Fatty acid synthase FASN is a multifunctional enzyme with seven catalytic activities thereby synthesising long chain fatty acids especially palmitoyl-CoA in the presence of co-factor NADPH starting from the substrates acetyl-CoA and malonyl-CoA. The reductive synthesis is realized by the oxidation of NADPH to NADP. Since NADPH has a high fluorescence intensity quantum yield compared to NADP with excitation at 340 nm and emission at 460 nm, the reaction can be monitored via the decrease in fluorescence intensity. The biochemical FASN activity testing was performed as 384 well two-time-point kinetic fluorescence intensity assay format in Greiner low volume medium binding 384-well black microtiter plates in a total assay volume of 8 μl and was used for high throughput screen. In each well 3 μl 40 nM human recombinant full-length fatty acid synthase (produced in-house in SF9 cells) were dispensed in the following assay buffer: 50 mM potassium phosphate buffer pH 7.0, 0.005% (w/v) BSA, 2 mM Glutathione, 0.02% Tween-20. Then 2 μl of 200 μM NADPH in assay buffer were added, followed by the addition of the test compounds in 10 dilution concentrations starting with 30 μM (final concentration) to get a final DMSO content of 1% (v/v). The mixture was incubated for at least 15 min at room temperature. After the pre-incubation the enzymatic reaction was started by the addition of 2 μl substrate solution (80 μM acetyl-CoA, 240 μM malonyl-CoA). A first fluorescence intensity measurement (time point one) was performed with an Envision multimode reader (Perkin Elmer LAS Germany GmbH) at excitation wavelength 340 nm (lamp mode) and emission wavelength 460 nm. The reaction was incubated for 30 minutes at room temperature. After this the fluorescence intensity was measured again in the Envision using the same parameters as described above (second time point measurement). The data were analysed by subtracting the first time point measurement value from the second time point measurement value (after the enzymatic reaction). The differences of the emission signals were determined. These reflect directly the conversion rate of NADPH. The full value used was the inhibitor-free reaction. A pharmacological zero value was used like GSK837149A (Sigma-Aldrich) in a final concentration of 5-10 μM. The inhibitory values (IC50) were determined using either the program Symyx Assay Explorer® or Condosseo® from GeneData.
# T1 sequence (P49327 whole entry): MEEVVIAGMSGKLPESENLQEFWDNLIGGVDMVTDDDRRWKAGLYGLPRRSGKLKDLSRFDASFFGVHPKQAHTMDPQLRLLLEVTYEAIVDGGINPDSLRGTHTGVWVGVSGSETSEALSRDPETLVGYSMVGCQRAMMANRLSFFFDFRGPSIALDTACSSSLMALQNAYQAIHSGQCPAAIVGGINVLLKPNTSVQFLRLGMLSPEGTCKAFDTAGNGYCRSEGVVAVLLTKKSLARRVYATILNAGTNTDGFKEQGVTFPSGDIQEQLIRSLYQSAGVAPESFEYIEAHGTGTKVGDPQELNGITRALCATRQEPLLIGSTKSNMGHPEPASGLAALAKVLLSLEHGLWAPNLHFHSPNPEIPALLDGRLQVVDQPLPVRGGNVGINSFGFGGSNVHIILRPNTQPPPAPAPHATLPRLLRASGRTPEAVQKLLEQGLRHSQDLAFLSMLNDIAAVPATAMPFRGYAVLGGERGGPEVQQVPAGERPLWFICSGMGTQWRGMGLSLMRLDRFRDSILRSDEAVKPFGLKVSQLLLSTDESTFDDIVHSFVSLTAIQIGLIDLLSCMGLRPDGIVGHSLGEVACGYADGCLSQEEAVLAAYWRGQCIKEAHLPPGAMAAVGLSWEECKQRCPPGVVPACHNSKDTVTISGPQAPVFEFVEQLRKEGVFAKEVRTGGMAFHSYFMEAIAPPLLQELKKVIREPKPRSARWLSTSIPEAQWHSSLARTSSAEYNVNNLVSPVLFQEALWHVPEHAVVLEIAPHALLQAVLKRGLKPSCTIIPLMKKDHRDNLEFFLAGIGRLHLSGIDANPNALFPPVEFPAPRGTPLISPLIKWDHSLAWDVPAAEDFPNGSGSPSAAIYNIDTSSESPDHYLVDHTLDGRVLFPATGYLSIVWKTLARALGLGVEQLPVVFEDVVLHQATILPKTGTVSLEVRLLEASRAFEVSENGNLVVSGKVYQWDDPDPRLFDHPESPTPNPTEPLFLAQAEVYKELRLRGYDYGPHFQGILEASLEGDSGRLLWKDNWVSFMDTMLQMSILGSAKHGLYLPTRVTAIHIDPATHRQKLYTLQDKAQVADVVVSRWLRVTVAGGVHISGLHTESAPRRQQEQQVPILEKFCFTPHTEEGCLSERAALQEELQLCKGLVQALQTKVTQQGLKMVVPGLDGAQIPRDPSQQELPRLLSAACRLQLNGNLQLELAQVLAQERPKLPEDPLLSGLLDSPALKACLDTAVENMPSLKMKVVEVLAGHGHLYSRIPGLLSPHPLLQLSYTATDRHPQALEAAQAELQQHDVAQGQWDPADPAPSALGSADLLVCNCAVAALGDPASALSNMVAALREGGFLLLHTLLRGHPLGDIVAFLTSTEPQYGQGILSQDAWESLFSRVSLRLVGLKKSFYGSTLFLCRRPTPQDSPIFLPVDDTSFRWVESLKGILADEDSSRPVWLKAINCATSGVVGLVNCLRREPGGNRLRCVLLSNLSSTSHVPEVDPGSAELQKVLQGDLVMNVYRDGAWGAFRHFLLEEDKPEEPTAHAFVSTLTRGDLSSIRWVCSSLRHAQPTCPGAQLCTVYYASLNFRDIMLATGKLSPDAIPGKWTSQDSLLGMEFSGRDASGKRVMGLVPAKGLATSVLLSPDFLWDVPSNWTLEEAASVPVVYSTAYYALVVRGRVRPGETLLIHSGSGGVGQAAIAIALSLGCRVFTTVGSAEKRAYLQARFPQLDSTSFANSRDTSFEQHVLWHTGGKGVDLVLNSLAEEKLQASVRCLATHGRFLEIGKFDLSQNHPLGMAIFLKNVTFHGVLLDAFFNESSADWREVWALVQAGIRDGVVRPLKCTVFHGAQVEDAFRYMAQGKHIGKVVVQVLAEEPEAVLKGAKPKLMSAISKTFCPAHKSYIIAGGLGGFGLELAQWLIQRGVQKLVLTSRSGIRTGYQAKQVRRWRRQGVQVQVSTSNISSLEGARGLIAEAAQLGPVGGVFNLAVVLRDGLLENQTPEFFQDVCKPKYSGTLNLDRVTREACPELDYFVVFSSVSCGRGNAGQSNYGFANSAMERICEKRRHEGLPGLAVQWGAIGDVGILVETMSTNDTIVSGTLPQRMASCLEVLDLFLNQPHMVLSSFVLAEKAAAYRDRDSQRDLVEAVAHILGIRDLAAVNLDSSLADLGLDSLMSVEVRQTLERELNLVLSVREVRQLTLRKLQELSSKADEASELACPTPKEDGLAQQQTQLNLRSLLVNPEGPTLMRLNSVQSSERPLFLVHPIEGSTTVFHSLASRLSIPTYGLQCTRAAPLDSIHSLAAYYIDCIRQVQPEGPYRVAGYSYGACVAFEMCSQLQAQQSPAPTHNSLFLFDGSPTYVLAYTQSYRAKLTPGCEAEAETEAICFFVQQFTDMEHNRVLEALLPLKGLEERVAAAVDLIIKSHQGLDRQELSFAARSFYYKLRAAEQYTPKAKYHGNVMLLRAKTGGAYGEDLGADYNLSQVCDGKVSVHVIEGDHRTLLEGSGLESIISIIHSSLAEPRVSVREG
row,IC50 [nM],Compound
1,3000 to 50000,"CN(C(=O)c1ccc(-c2ccccc2)cc1)[C@@H]1CC[C@H](n2cc(C3CC3)nn2)C1 (racemic) [Compound A29, (rac)-cis-biphenyl-4-carboxylic acid [-3-(4-cyclopropyl-[1,2,3]triazol-1-yl)-cyclopentyl]-methyl-amide]"
2,3000 to 50000,"CCCc1cn([C@H]2CC[C@@H](N(C)C(=O)c3ccc(-c4ccccc4)cc3)C2)nn1 (racemic) [Compound A30, (rac)-cis-biphenyl-4-carboxylic acid methyl-[3-(4-propyl-[1,2,3]triazol-1-yl)-cyclopentyl]-amide]"
3,< 300,"CCCc1nnc([C@H]2CC[C@@H](N(C)C(=O)c3ccc(-c4nc5ccccc5o4)cc3)C2)o1 [Compound A1, 4-benzoxazol-2-yl-N-methyl-N-[(1 R,3S)-3-(5-propyl-[1,3,4]oxadiazol-2-yl)-cyclopentyl]-benzamide]"
4,< 300,"CCCc1nnc([C@H]2CC[C@@H](N(C)C(=O)c3ccc(-c4ccccc4)cc3)C2)o1 [Compound A2, biphenyl-4-carboxylic acid methyl-[(1R,3S)-3-(5-propyl-[1,3,4]oxadiazol-2-yl)-cyclopentyl]-amide]"
5,< 300,"CCCc1nnc([C@H]2CC[C@@H](N(C)C(=O)c3ccc(C#Cc4ccc(F)cc4)cc3)C2)o1 [Compound A3, 4-(4-fluoro-phenylethynyl)-N-methyl-N-[(1 R,3S)-3-(5-propyl-[1,3,4]oxadiazol-2-yl)-cyclopentyl]-benzamide]"
6,< 300,"CCCc1nnc([C@H]2CC[C@@H](N(C)C(=O)c3ccc(-c4ccc(C#N)cc4)cc3)C2)o1 [Compound A4, 4′-cyano-biphenyl-4-carboxylic acid methyl-[(1 R,3S)-3-(5-propyl-[1,3,4]oxadiazol-2-yl)-cyclopentyl]-amide]"
7,< 300,"CCc1nnc([C@H]2CC[C@@H](N(C)C(=O)c3ccc(-c4nc5ccccc5o4)cc3)C2)o1 [Compound A5, 4-benzoxazol-2-yl-N-[(1 R,3S)-3-(5-ethyl-[1,3,4]oxadiazol-2-yl)-cyclopentyl]-N-methyl-benzamide]"
8,< 300,"CCc1nnc([C@H]2CC[C@@H](N(C)C(=O)c3ccc(-c4ccc(C#N)cc4)cc3)C2)o1 [Compound A6, 4′-cyano-biphenyl-4-carboxylic acid [(1R,3S)-3-(5-ethyl-[1,3,4]oxadiazol-2-yl)-cyclopentyl]-methyl-amide]"
9,< 300,"CCc1nnc([C@H]2CC[C@@H](N(C)C(=O)c3ccc(-c4nc5ccccc5[nH]4)cc3)C2)o1 [Compound A7, 4-(1H-benzimidazol-2-yl)-N-[(1 R,3S)-3-(5-ethyl-[1,3,4]oxadiazol-2-yl)-cyclopentyl]-N-methyl-benzamide]"
10,300 to 3000,"CCc1nnc([C@H]2CC[C@@H](N(C)C(=O)c3ccc(-c4ccncc4)cc3)C2)o1 [Compound A8, N-[(1R,3S)-3-(5-ethyl-[1,3,4]oxadiazol-2-yl)-cyclopentyl]-N-methyl-4-pyridin-4-yl-benzamide]"
11,< 300,"CC(C)c1nnc([C@H]2CC[C@@H](N(C)C(=O)c3ccc(-c4nc5ccccc5o4)cc3)C2)o1 [Compound A9, 4-benzoxazol-2-yl-N-[(1 R,3S)-3-(5-isopropyl-[1,3,4]oxadiazol-2-yl)-cyclopentyl]-N-methyl-benzamide]"
12,< 300,"CC(C)c1nnc([C@H]2CC[C@@H](N(C)C(=O)c3ccc(-c4ccc(C#N)cc4)cc3)C2)o1 [Compound A10, 4′-cyano-biphenyl-4-carboxylic acid [(1R,3S)-3-(5-isopropyl-[1,3,4]oxadiazol-2-yl)-cyclopentyl]-methyl-amide]"
13,< 300,"CC(C)c1nnc([C@H]2CC[C@@H](N(C)C(=O)c3ccc(-c4nc5ccccc5[nH]4)cc3)C2)o1 [Compound A11, 4-(1H-benzimidazol-2-yl)-N-[(1 R,3S)-3-(5-isopropyl-[1,3,4]oxadiazol-2-yl)-cyclopentyl]-N-methyl-benzamide]"
14,300 to 3000,"CC(C)c1nnc([C@H]2CC[C@@H](N(C)C(=O)c3ccc(-c4ccncc4)cc3)C2)o1 [Compound A12, N-[(1R,3S)-3-(5-isopropyl-[1,3,4]oxadiazol-2-yl)-cyclopentyl]-N-methyl-4-pyridin-4-yl-benzamide]"
15,< 300,"Cc1nnc([C@H]2CC[C@@H](N(C)C(=O)c3ccc(-c4nc5ccccc5o4)cc3)C2)o1 [Compound A13, 4-benzoxazol-2-yl-N-methyl-N-[(1 R,3S)-3-(5-methyl-[1,3,4]oxadiazol-2-yl)-cyclopentyl]-benzamide]"
16,< 300,"Cc1nnc([C@H]2CC[C@@H](N(C)C(=O)c3ccc(-c4nc5ccccc5s4)cc3)C2)o1 [Compound A14, 4-benzothiazol-2-yl-N-methyl-N-[(1 R,3S)-3-(5-methyl-[1,3,4]oxadiazol-2-yl)-cyclopentyl]-benzamide]"
17,300 to 3000,"Cc1nnc([C@H]2CC[C@@H](N(C)C(=O)c3ccc(-c4ccncc4)cc3)C2)o1 [Compound A15, N-methyl-N-[(1R,3S)-3-(5-methyl-[1,3,4]oxadiazol-2-yl)-cyclopentyl]-4-pyridin-4-yl-benzamide]"
18,< 300,"Cc1nnc([C@H]2CC[C@@H](N(C)C(=O)c3ccc(-c4ccc(Cl)cc4)cc3)C2)o1 [Compound A16, 4′-chloro-biphenyl-4-carboxylic acid methyl-[(1R,3S)-3-(5-methyl-[1,3,4]oxadiazol-2-yl)-cyclopentyl]-amide]"
19,< 300,"Cc1nnc([C@H]2CC[C@@H](N(C)C(=O)c3ccc(-c4nc5ccccc5[nH]4)cc3)C2)o1 [Compound A17, 4-(1H-benzimidazol-2-yl)-N-methyl-N-[(1 R,3S)-3-(5-methyl-[1,3,4]oxadiazol-2-yl)-cyclopentyl]-benzamide]"
20,< 300,"COc1cc(C(=O)N(C)[C@@H]2CC[C@H](c3nnc(C)o3)C2)ccc1-c1nc2ccccc2o1 [Compound A18, 4-benzoxazol-2-yl-3-methoxy-N-methyl-N-[(1 R,3S)-3-(5-methyl-[1,3,4]oxadiazol-2-yl)-cyclopentyl]-benzamide]"
21,< 300,"Cc1nnc([C@H]2CC[C@@H](N(C)C(=O)c3ccc(-c4nc5cc(Cl)ccc5o4)cc3)C2)o1 [Compound A19, 4-(5-chloro-benzoxazol-2-yl)-N-methyl-N-[(1 R,3S)-3-(5-methyl-[1,3,4]oxadiazol-2-yl)-cyclopentyl]-benzamide]"
22,< 300,"Cc1nnc([C@H]2CC[C@@H](N(C)C(=O)c3ccc(C#Cc4ccc(Cl)cc4)cc3)C2)o1 [Compound A21, 4-(4-chloro-phenylethynyl)-N-methyl-N-[(1 R,3S)-3-(5-methyl-[1,3,4]oxadiazol-2-yl)-cyclopentyl]-benzamide]"
23,300 to 3000,"Cc1nnc([C@H]2CC[C@@H](N(C)C(=O)c3ccc(C#Cc4ccncc4)cc3)C2)o1 [Compound A22, N-methyl-N-[(1R,3S)-3-(5-methyl-[1,3,4]oxadiazol-2-yl)-cyclopentyl]-4-pyridin-4-ylethynyl-benzamide]"
24,300 to 3000,"Cc1nnc([C@H]2CC[C@@H](N(C)C(=O)c3ccc(-c4nc5ccccc5o4)cn3)C2)o1 [Compound A23, 5-benzoxazol-2-yl-pyridine-2-carboxylic acid methyl-[(1R,3S)-3-(5-methyl-[1,3,4]oxadiazol-2-yl)-cyclopentyl]-amide]"
25,< 300,"Cc1nnc([C@H]2CC[C@@H](N(C)C(=O)c3ccc(-c4ccccc4)cc3)C2)o1 [Compound A24, biphenyl-4-carboxylic acid methyl-[(1R,3S)-3-(5-methyl-[1,3,4]oxadiazol-2-yl)-cyclopentyl]-amide]"
